In ChEMBL document CHEMBL1201862, “PubChem BioAssay data set” (2004):
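Results reflect a 48-hour exposure of cells in 96-well plates to compound at five concentrations. Here, GI50 denotes the concentration required for 50% inhibition of growth.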 Activity calls are given as the source filed them. Rule as the data show it: active = GI50 up to about 1.1 µM and inactive = higher.

Columns and labels:
Assay in all cases: growth of human tumour cells (NCI), 48 h
SNB-75 = test system: SNB-75
IGROV-1 = test system: IGROV-1
MOLT-4 = test system: MOLT-4
UACC-257 = test system: UACC-257
NCI-H226 = test system: NCI-H226
HCC 2998 = test system: HCC 2998
MCF7 = test system: MCF7
ACHN = test system: ACHN
HCT-116 = test system: HCT-116
A498 = test system: A498
SK-MEL-5 = test system: SK-MEL-5
SF-268 = test system: SF-268
BT-549 = test system: BT-549
UO-31 = test system: UO-31
MDA-MB-435 = test system: MDA-MB-435
OVCAR-3 = test system: OVCAR-3
EKVX = test system: EKVX
PC-3 = test system: PC-3
NCI/ADR-RES = test system: NCI/ADR-RES

SMILES | GI50 (SNB-75) | GI50 (IGROV-1) | GI50 (MOLT-4) | GI50 (UACC-257) | GI50 (NCI-H226) | GI50 (HCC 2998) | GI50 (MCF7) | GI50 (ACHN) | GI50 (HCT-116) | GI50 (A498) | GI50 (SK-MEL-5) | GI50 (SF-268) | GI50 (BT-549) | GI50 (UO-31) | GI50 (MDA-MB-435) | GI50 (OVCAR-3) | GI50 (EKVX) | GI50 (PC-3) | GI50 (NCI/ADR-RES)
COc1cc2c(cc1OC)-c1[nH]c3ccc([N+](=O)[O-])cc3c1CC(=O)N2 | 2.43 µM (inactive) | 2.39 µM (inactive) | 1.56 µM (inactive) | 8.49 µM (inactive) | 0.78 µM (active) | 1.04 µM (active) | 3.59 µM (inactive) | 2.32 µM (inactive) | 0.472 µM (active) | 2.98 µM (inactive) | 1.58 µM (inactive) | 0.881 µM (active) | 3.15 µM (inactive) | 2.36 µM (inactive) | 1.71 µM (inactive) | 0.726 µM (active) | 5.87 µM (inactive) | 3.29 µM (inactive) | > 100 µM (inactive)
c1ccc(C2=Nn3c(CCCCCCCCc4nnc5n4N=C(c4ccccc4)CS5)nnc3SC2)cc1 | 14.5 µM (inactive) | > 100 µM (inactive) | 32.4 µM (inactive) | > 100 µM (inactive) | 72.1 µM (inactive) | > 100 µM (inactive) | > 100 µM (inactive) | 40.6 µM (inactive) | > 66.1 µM (inactive) | 39.1 µM (inactive) | > 100 µM (inactive) | 23.1 µM (inactive) | > 57.7 µM (inactive) | > 67.3 µM (inactive) | > 100 µM (inactive) | > 100 µM (inactive) | 76.2 µM (inactive) | > 100 µM (inactive) | > 79.8 µM (inactive)
COc1ccc(CNc2nc3ccccc3nc2C(=O)O)cc1OC | > 100 µM (inactive) | > 100 µM (inactive) | > 100 µM (inactive) | > 100 µM (inactive) | > 100 µM (inactive) | > 100 µM (inactive) | > 100 µM (inactive) | > 100 µM (inactive) | > 100 µM (inactive) | 91.2 µM (inactive) | > 100 µM (inactive) | > 100 µM (inactive) | 30.7 µM (inactive) | 36.5 µM (inactive) | > 100 µM (inactive) | > 100 µM (inactive) | > 100 µM (inactive) | > 100 µM (inactive) | 26.7 µM (inactive)
CCNc1nc2ccccc2nc1NCC | > 100 µM (inactive) | > 100 µM (inactive) | > 100 µM (inactive) | > 100 µM (inactive) | > 100 µM (inactive) | > 100 µM (inactive) | > 100 µM (inactive) | > 100 µM (inactive) | > 100 µM (inactive) | > 100 µM (inactive) | > 100 µM (inactive) | > 100 µM (inactive) | > 100 µM (inactive) | > 100 µM (inactive) | > 100 µM (inactive) | > 100 µM (inactive) | > 100 µM (inactive) | > 100 µM (inactive) | > 100 µM (inactive)
N=c1ccn2c(n1)OC1C(OP(=O)(O)O)C(CO)OC12 (stereo not given) | > 88.3 µM (inactive) | > 80.7 µM (inactive) | 0.147 µM (active) | > 30.2 µM (inactive) | > 100 µM (inactive) | 11 µM (inactive) | 1.18 µM (inactive) | 1.06 µM (active) | 2.06 µM (inactive) | 10.8 µM (inactive) | 55.1 µM (inactive) | 99.5 µM (inactive) | > 100 µM (inactive) | 7.64 µM (inactive) | > 100 µM (inactive) | > 71.3 µM (inactive) | > 100 µM (inactive) | > 100 µM (inactive) | 22.5 µM (inactive)
CC1(C)[C@@H]2C[C@H]1c1cnc(-c3ccccn3)cc1C2[C@@H]1c2cc(-c3ccccn3)ncc2[C@@H]2C[C@H]1C2(C)C (stereo not given in full) | 55.8 µM (inactive) | 25.2 µM (inactive) | 44 µM (inactive) | 87.9 µM (inactive) | 28.4 µM (inactive) | 45.7 µM (inactive) | 53 µM (inactive) | 40.5 µM (inactive) | 49 µM (inactive) | 39.9 µM (inactive) | 49.7 µM (inactive) | 29.3 µM (inactive) | > 100 µM (inactive) | 24.3 µM (inactive) | 76 µM (inactive) | 43.6 µM (inactive) | > 100 µM (inactive) | 73.6 µM (inactive) | 37.7 µM (inactive)
COc1ccc(C2(CC(C)O)SCCCS2)cc1 (stereo not given) | > 100 µM (inactive) | > 100 µM (inactive) | 42 µM (inactive) | > 100 µM (inactive) | > 100 µM (inactive) | > 100 µM (inactive) | > 100 µM (inactive) | > 100 µM (inactive) | > 100 µM (inactive) | > 100 µM (inactive) | > 100 µM (inactive) | > 100 µM (inactive) | > 100 µM (inactive) | > 100 µM (inactive) | > 100 µM (inactive) | > 100 µM (inactive) | > 100 µM (inactive) | 92.7 µM (inactive) | > 100 µM (inactive)
C=C(Cl)COC(=O)Nc1cccc(Cl)c1 | 26.4 µM (inactive) | 26.7 µM (inactive) | 57.5 µM (inactive) | 31 µM (inactive) | 44.8 µM (inactive) | 37.1 µM (inactive) | 28.1 µM (inactive) | 34.9 µM (inactive) | 27 µM (inactive) | 23.4 µM (inactive) | 18 µM (inactive) | 40.1 µM (inactive) | 26.7 µM (inactive) | 12 µM (inactive) | 30.1 µM (inactive) | 28.1 µM (inactive) | 22.5 µM (inactive) | 29 µM (inactive) | 29.3 µM (inactive)
COc1ccccc1C1c2cc3c(cc2OC2(OC)COC(=O)C12)OCO3 (stereo not given) | 7.16 µM (inactive) | 13.1 µM (inactive) | 5.33 µM (inactive) | 19.7 µM (inactive) | 34.8 µM (inactive) | 14.9 µM (inactive) | 10.3 µM (inactive) | 22.2 µM (inactive) | 6.98 µM (inactive) | 6.59 µM (inactive) | 7.19 µM (inactive) | 14.3 µM (inactive) | 17.9 µM (inactive) | 14.6 µM (inactive) | 2.27 µM (inactive) | 9.57 µM (inactive) | 24.7 µM (inactive) | 12 µM (inactive) | 6.55 µM (inactive)
CN(C1=NS(=O)(=O)N=C(N(C)c2ccccc2)O1)c1ccccc1 | 16.7 µM (inactive) | 23.3 µM (inactive) | 27.4 µM (inactive) | 19.1 µM (inactive) | 14.9 µM (inactive) | 20.7 µM (inactive) | 15 µM (inactive) | 17.3 µM (inactive) | 13.7 µM (inactive) | 20.5 µM (inactive) | 7.66 µM (inactive) | 24.5 µM (inactive) | 8.38 µM (inactive) | 21.4 µM (inactive) | 13.8 µM (inactive) | 20.3 µM (inactive) | 22.2 µM (inactive) | > 100 µM (inactive) | 21.8 µM (inactive)
COC(=O)C1Cc2ccc(C)cc2C1=O (stereo not given) | > 100 µM (inactive) | > 100 µM (inactive) | > 100 µM (inactive) | > 100 µM (inactive) | > 100 µM (inactive) | > 100 µM (inactive) | > 100 µM (inactive) | > 100 µM (inactive) | > 100 µM (inactive) | > 100 µM (inactive) | 50.7 µM (inactive) | > 100 µM (inactive) | > 100 µM (inactive) | > 100 µM (inactive) | > 100 µM (inactive) | > 100 µM (inactive) | > 100 µM (inactive) | > 100 µM (inactive) | > 100 µM (inactive)
O=S(=O)(NNc1ccccc1)c1ccccc1 | 40 µM (inactive) | 10.2 µM (inactive) | 26.5 µM (inactive) | 27.5 µM (inactive) | 4.12 µM (inactive) | 0.902 µM (active) | 14.9 µM (inactive) | 0.662 µM (active) | 13.2 µM (inactive) | 81.5 µM (inactive) | 2.1 µM (inactive) | 38.5 µM (inactive) | 19.2 µM (inactive) | 10.6 µM (inactive) | 4.81 µM (inactive) | 11.3 µM (inactive) | 14.4 µM (inactive) | 8.15 µM (inactive) | 10 µM (inactive)
CC(=O)Nc1cc(/C=C\C(=O)N2CC(CCl)c3c2cc(N)c2ccccc32)n(C)n1 (stereo not given) | 0.00165 µM (active) | 0.0137 µM (active) | 0.00201 µM (active) | 0.0132 µM (active) | 0.00805 µM (active) | 0.0148 µM (active) | 0.00204 µM (active) | < 0.001 µM (active) | 0.00149 µM (active) | 0.00373 µM (active) | 0.00269 µM (active) | 0.0057 µM (active) | 0.0199 µM (active) | 0.00284 µM (active) | 0.0169 µM (active) | 0.0164 µM (active) | 0.0251 µM (active) | 0.0233 µM (active) | 0.0216 µM (active)
c1ccc(C2C3=C(CCCC3)Nc3nc4cc5ccccc5cc4n32)cc1 (stereo not given) | > 100 µM (inactive) | > 100 µM (inactive) | > 100 µM (inactive) | > 100 µM (inactive) | > 100 µM (inactive) | > 100 µM (inactive) | > 100 µM (inactive) | > 100 µM (inactive) | > 100 µM (inactive) | > 100 µM (inactive) | > 100 µM (inactive) | > 100 µM (inactive) | > 100 µM (inactive) | > 100 µM (inactive) | > 100 µM (inactive) | > 100 µM (inactive) | > 100 µM (inactive) | > 100 µM (inactive) | > 100 µM (inactive)
Cc1ccc(S(=O)(=O)N(CC(O)COc2ccccc2)c2ccccc2Cl)cc1 (stereo not given) | 22.3 µM (inactive) | 12.5 µM (inactive) | 19.8 µM (inactive) | 14.7 µM (inactive) | 14.9 µM (inactive) | 19.5 µM (inactive) | 20.5 µM (inactive) | 16.3 µM (inactive) | 14.6 µM (inactive) | 17.7 µM (inactive) | 14.7 µM (inactive) | 17.1 µM (inactive) | 17.1 µM (inactive) | 12.2 µM (inactive) | 15.6 µM (inactive) | 19 µM (inactive) | 13.6 µM (inactive) | 15.9 µM (inactive) | 16.8 µM (inactive)
